Data taken from patent US11834698B2, “Process for determining enzyme activity in a cell by activity-based reporter gene technology (ABRGT)” (INDIAN INSTITUTE OF SCIENCE EDUCATION AND RESEARCH, priority 2018, dated 2023).
Peptide text beside a SMILES is read from it. * marks the point of attachment. Cbz = O=C(OCc1ccccc1)*; CH2F = FC*

Experiments:
cathepsin B GFPspark = target: T1, cathepsin B GFPspark (Homo sapiens, UniProt P07858); test: AbRGT FRET imaging / acceptor photobleaching, cathepsin B GFPspark in HEK-293 cells; type: cell-based
T1 construct: GFPspark (C); host or cells: HEK-293
Procedure: FIG. 20 depicts confocal images of HEK-293 cells in GFP, FRET and Rh channel Cathepsin B GFPspark transfected HEK-293 cells were treated with STS (1 μM) for 4 h and labelled (a) (i) with or (a) (iv) without probe 1. Cells were pre-treated with (a) (ii) Z-VAD-FMK (50 μM) or (a) (iii) E-64 (50 μM) inhibitor 1 h before the probe 1 labelling. (b) Quantification of the change in GFPS fluorescence intensity after rhodamine photobleaching in both unbleached control region and rhodamine bleached region (ROI), using acceptor photo-bleaching method. Error bar represents the s.e.m for n=10 cells (*P<0.00001). Scale bar, 10 μm. a.u., arbitrary units.
(§1) Plasmids and transient transfection: GFPspark tagged plasmids; caspase-3 GFPspark tag (Cat: HG10050-ACG), caspase-7 GFPspark tag (HG10049-ACG), caspase-8 GFPspark (HG10078-ACG), caspase-9 GFPspark (HG11151-ACG) and cathepsin B GFPspark (HG10483-ACG) were procured from Sino Biological. For transfection, cells were seeded in a 6-well plate at a density of 0.4 million cells/well. At 60-70% confluency, cells were transiently transfected for 24 h at 37° C. with 1 μg of the GFPspark tagged plasmid DNA construct mixed with 5 μL of Lipofectamine 2000 (Invitrogen) according to the manufacturer's instructions. 24 h post-transfection, cells were visualized under the GFP filter for GFPspark expression under fluorescence microscope at 10× magnification.
Labelling of active caspases in apoptotic cells with FABP: After 24 h of transfection, cells were treated with STS (1 μM) drug or TRAIL (1 μg/ml) for apoptotic induction and incubated for 2, 4, 6 and 8 h at 37° C. in a humidified atmosphere of 5% CO2/95% air. Cells were gently scraped off from the surface at the end of apoptotic induction and centrifuged at 3000 rpm for 5 min. The cell pellet was resuspended in 300 μL of fresh DMEM containing 1 μM of probe for probe 2 and incubated for additional 2 h at 37° C. in a humidified atmosphere of 5% CO2. Cells were again centrifuged at 3000 rpm for 5 mins, and the supernatant was decanted. Cells were washed with 1×PBS, thrice finally resuspended in 20 μL of 1×PBS. The cell suspension was put on a slide, and a coverslip was placed over it. It was left for air drying. Slides were then imaged for GFP, FRET and rhodamine fluorescence signals under confocal microscopy.
Inhibitor assay: Cells were pre-treated with 50 μM of Z-VAD-FMK or Q-VD-OPh or E-64 inhibitor 1 h before probe 1 labelling and incubated for 1 h at 37° C. in a humidified atmosphere of 5% CO2. Cells were gently scraped off from the surface at the end of inhibitor treatment and centrifuged at 3000 rpm for 5 min Cells were then labelled with the probe 1 as described in the previous section.
Fluorescence imaging studies, FRET procedure: Images were collected on Zeiss LSM710 confocal microscope with 25 mW argon laser using Zen10 software. The laser was tuned to lines at 488 nm (excitation laser for GFPspark) and 561 nm (excitation laser for rhodamine) Cells were examined with a 40× 1.3 NA Zeiss oil immersion objective and 2.4× zoom. Images were collected in the three channels; GFP channel, argon laser tuned at 488 nm with 2% laser intensity and fluorescence emission was collected in emission range of 490-550 nm; rhodamine channel, argon laser tuned to 561 nm laser with 2% laser intensity and fluorescence emission was collected in range 550-650 nm and FRET channel with excitation laser of GFPSPARK channel and emission range of rhodamine channel. […]

caspase-8 GFPspark = target: T2, caspase-8 GFPspark (Homo sapiens, UniProt Q14790); test: AbRGT FRET imaging / acceptor photobleaching, caspase-8 GFPspark in HEK-293 cells; type: cell-based
T2 construct: host or cells: HEK-293
Procedure: FIG. 15 depicts confocal images of MCF-7 cells in GFP, FRET and Rh channel Caspase-7 GFPspark transfected MCF-7 cells were treated with STS (1 μM) for 6 h and labelled (a) (i) with probe 1 (1 μM) probe. Cells were pre-treated with (a) (ii) Z-VAD-FMK (50 μM) or (a) (iii) Q-VD-OPh (50 μM) pan-caspase inhibitors 1 h before the probe labelling. Caspase-9 GFPspark transfected MCF-7 cells were treated with STS (1 μM) for 4 h and labelled (b) (i) with probe 1 (1 μM) probe. Cells were pre-treated with (b) (ii) Z-VAD-FMK (50 μM) 1 h before probe labelling. Caspase-8 GFPspark overexpressing HEK-293 cells were treated with TRAIL (1 μg/ml) for 5 h and labelled (c) (i) with the probe 1. Cells were pre-treated with (c) (ii) Z-VAD-FMK (50 μM) 1 h before probe labelling.
FIG. 18 depicts specific detection of caspase-8 GFPspark in HEK-293 cells. Casp-8 GFPspark (1 μg) transfected HEK-293 cells were treated with TRAIL ([…]) for 6 h and labelled with the probe 1 (1 μM) for 2 h. Cells were washed, fixed and the fluorescence signal was collected in GFP, FRET and Rh channels. The acceptor photobleaching experiment was performed to confirm the FRET signal as described previously. The bar graph representing a rise in GFP intensity in ROI after rhodamine photobleaching was 82 a.u. as compared to the unbleached background, i.e., 11 a.u. The FRET efficiency was calculated to be 31±1%.
as §1
Labelling of active caspases in apoptotic cells with FABP: After 24 h of transfection, cells were treated with STS (1 μM) drug or TRAIL (1 μg/ml) for apoptotic induction and incubated for 2, 4, 6 and 8 h at 37° C. in a humidified atmosphere of 5% CO2/95% air. Cells were gently scraped off from the surface at the end of apoptotic induction and centrifuged at 3000 rpm for 5 min. […] Slides were then imaged for GFP, FRET and rhodamine fluorescence signals under confocal microscopy. […]
Fluorescence imaging studies, FRET procedure: Images were collected on Zeiss LSM710 confocal microscope with 25 mW argon laser using Zen10 software. […]

[1] = HEK-293, inhibitor 50 μM 1 h before probe 1 labelling, STS 4 h
[2] = HEK-293, TRAIL, Z-VAD-FMK pre-treatment
[3] = HEK-293, TRAIL 6 h, probe 1 μM 2 h

T2 sequence (Q14790 217-374 limits assumed): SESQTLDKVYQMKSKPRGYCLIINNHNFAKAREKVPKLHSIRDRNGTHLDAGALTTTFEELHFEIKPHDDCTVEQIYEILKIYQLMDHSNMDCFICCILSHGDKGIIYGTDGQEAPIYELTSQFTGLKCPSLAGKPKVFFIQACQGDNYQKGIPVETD
T2 sequence (Q14790 385-479 limits assumed): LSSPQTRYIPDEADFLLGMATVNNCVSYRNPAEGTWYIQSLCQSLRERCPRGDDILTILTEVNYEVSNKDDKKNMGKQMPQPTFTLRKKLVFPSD

Row | Compound | effect of inhibitor on FRET signal (cathepsin B GFPspark; [1]) | signal in Rh channel in presence of inhibitor (cathepsin B GFPspark; [1]) | effect of inhibitor on signal in FRET channel (caspase-8 GFPspark; [2]) | effect of inhibitor on signal in Rh channel (caspase-8 GFPspark; [2]) | FRET efficiency (cathepsin B GFPspark; HEK-293, STS 1 μM 4 h, probe 1 μM 2 h, n=10 cells) [%] | calculated FRET efficiency (caspase-8 GFPspark; [3]) [%] | rise in GFP intensity in ROI after rhodamine photobleaching (caspase-8 GFPspark; [3]) [a.u.]
1 | COC(=O)C[C@H](NC(=O)[C@H](C)NC(=O)[C@@H](NC(=O)OCc1ccccc1)C(C)C)C(=O)CF [Z-VAD-FMK] (Cbz-Val-Ala-Asp(OMe)-CH2F) | completely abolished | less intense fluorescence signal was still retained | abolished | abolished |  |  | 
2 | Rhodamine-VAD-fluoromethyl ketone [probe 1] |  |  |  |  | 37±1 | 31±1 | 82
